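1) Cells in 96-well plates. 2) Compound, 48 h, 5 concentrations. 3) Linear interpolation between surrounding doses. 4) Unreached endpoint = highest concentration. GI50: concentration for 50% inhibition of growth.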 The source made the active and inactive calls. Cut-off read from the data, not from the text of the source: active = GI50 up to about 1.1 µM and inactive = higher.
How the values were obtained:
Assay in all cases: NCI anticancer screen, dose series, 48 h
U-251 = test system: U-251
SK-OV-3 = test system: SK-OV-3
M14 = test system: M14
OVCAR-5 = test system: OVCAR-5
SK-MEL-2 = test system: SK-MEL-2
OVCAR-3 = test system: OVCAR-3
UACC-257 = test system: UACC-257
UO-31 = test system: UO-31
LOX IMVI = test system: LOX IMVI
KM12 = test system: KM12
DU-145 = test system: DU-145
SNB-75 = test system: SNB-75
OVCAR-4 = test system: OVCAR-4
ACHN = test system: ACHN
HCT-15 = test system: HCT-15
NCI/ADR-RES = test system: NCI/ADR-RES
BT-549 = test system: BT-549
NCI-H522 = test system: NCI-H522
HOP-62 = test system: HOP-62

SMILES	GI50 (U-251)	GI50 (SK-OV-3)	GI50 (M14)	GI50 (OVCAR-5)	GI50 (SK-MEL-2)	GI50 (OVCAR-3)	GI50 (UACC-257)	GI50 (UO-31)	GI50 (LOX IMVI)	GI50 (KM12)	GI50 (DU-145)	GI50 (SNB-75)	GI50 (OVCAR-4)	GI50 (ACHN)	GI50 (HCT-15) [µM]	GI50 (NCI/ADR-RES)	GI50 (BT-549)	GI50 (NCI-H522)	GI50 (HOP-62)
CN(C(=O)CCC(=O)O)c1ccccc1C(=O)O	> 100 µM (inactive)	> 100 µM (inactive)	> 100 µM (inactive)	> 100 µM (inactive)	> 100 µM (inactive)	> 100 µM (inactive)	40.4 µM (inactive)	> 100 µM (inactive)	> 100 µM (inactive)	> 100 µM (inactive)	> 100 µM (inactive)	> 100 µM (inactive)	> 100 µM (inactive)	> 100 µM (inactive)	> 100	> 100 µM (inactive)	> 100 µM (inactive)	–	–
CN(C)Cc1cc(/N=N/c2cccc(Cl)c2)ccc1O	16.9 µM (inactive)	19.9 µM (inactive)	9.66 µM (inactive)	14.9 µM (inactive)	–	13.6 µM (inactive)	14.5 µM (inactive)	8.32 µM (inactive)	4.16 µM (inactive)	7.08 µM (inactive)	6.9 µM (inactive)	16.1 µM (inactive)	9.86 µM (inactive)	3.29 µM (inactive)	4.9	5.05 µM (inactive)	15.9 µM (inactive)	11.7 µM (inactive)	10.2 µM (inactive)
O=C(O)c1cc2ccccc2c(/N=N/c2ccc(S(=O)(=O)O)cc2)c1O	> 100 µM (inactive)	> 100 µM (inactive)	> 100 µM (inactive)	> 100 µM (inactive)	> 100 µM (inactive)	> 100 µM (inactive)	> 100 µM (inactive)	60.3 µM (inactive)	–	> 100 µM (inactive)	> 100 µM (inactive)	> 100 µM (inactive)	> 100 µM (inactive)	> 100 µM (inactive)	> 100	> 100 µM (inactive)	> 100 µM (inactive)	> 100 µM (inactive)	> 100 µM (inactive)
Cc1c(C)c2c(c(N)c1C#N)C(=O)N(NC(=O)c1ccccc1)C2=O	> 100 µM (inactive)	–	> 100 µM (inactive)	> 100 µM (inactive)	> 100 µM (inactive)	> 100 µM (inactive)	> 100 µM (inactive)	36.1 µM (inactive)	> 100 µM (inactive)	> 100 µM (inactive)	> 100 µM (inactive)	> 100 µM (inactive)	> 100 µM (inactive)	> 100 µM (inactive)	> 100	> 100 µM (inactive)	> 100 µM (inactive)	> 100 µM (inactive)	–
c1ccc([P+](c2ccccc2)(c2ccccc2)c2ccc([P+](c3ccccc3)(c3ccccc3)c3ccccc3)c3ccccc23)cc1	35.7 µM (inactive)	> 100 µM (inactive)	> 100 µM (inactive)	> 100 µM (inactive)	> 100 µM (inactive)	46.3 µM (inactive)	32 µM (inactive)	> 100 µM (inactive)	30.5 µM (inactive)	34.4 µM (inactive)	67.3 µM (inactive)	70.1 µM (inactive)	–	> 100 µM (inactive)	> 100	> 100 µM (inactive)	51.2 µM (inactive)	44.4 µM (inactive)	> 100 µM (inactive)
CC1(C)CN(c2ccccc2)C(=O)C1OC(=O)[C@@]1(C)C[C@@H]2C=C[C@H]1C2 (stereo not given in full)	19.2 µM (inactive)	35.1 µM (inactive)	22 µM (inactive)	28.1 µM (inactive)	17.8 µM (inactive)	39.4 µM (inactive)	24.5 µM (inactive)	13.7 µM (inactive)	18.9 µM (inactive)	21.7 µM (inactive)	87.5 µM (inactive)	34.3 µM (inactive)	18.1 µM (inactive)	34.5 µM (inactive)	22.1	23 µM (inactive)	33.9 µM (inactive)	–	22.4 µM (inactive)
C/C(=C/CC[C@](C)(OC1OC(CO)C(O)C(O)C1O)[C@H]1CC[C@]2(C)[C@@H]1CC[C@@H]1[C@@]3(C)CC[C@H](O)C(C)(C)[C@@H]3C[C@H](O)[C@]12CO)CO (stereo not given in full)	> 100 µM (inactive)	> 100 µM (inactive)	> 100 µM (inactive)	> 100 µM (inactive)	–	> 100 µM (inactive)	> 100 µM (inactive)	> 100 µM (inactive)	> 100 µM (inactive)	> 100 µM (inactive)	> 100 µM (inactive)	> 100 µM (inactive)	> 100 µM (inactive)	> 100 µM (inactive)	> 100	> 100 µM (inactive)	> 100 µM (inactive)	> 100 µM (inactive)	> 100 µM (inactive)
CSc1ccc(-c2cc(-c3nc4ccccc4[nH]3)nc(N)c2C#N)cc1	–	33 µM (inactive)	16.8 µM (inactive)	26.6 µM (inactive)	16.9 µM (inactive)	16.5 µM (inactive)	18.5 µM (inactive)	–	18.2 µM (inactive)	21 µM (inactive)	17.4 µM (inactive)	23.1 µM (inactive)	–	19.9 µM (inactive)	20.2	31.3 µM (inactive)	20.6 µM (inactive)	16.1 µM (inactive)	19.1 µM (inactive)

— ChEMBL document CHEMBL1201862, “PubChem BioAssay data set” (2004)
